Drawing on ChEMBL document CHEMBL1909046, “DrugMatrix in vitro pharmacology data”, this text covers IC50 and Ki for two compounds.

pIC50, pKi: −log10 of the molar value.

Data set [1] addresses Sodium-dependent noradrenaline transporter (Homo sapiens, UniProt P23975). The data set can be described thus: DRUGMATRIX: Norepinephrine Transporter radioligand binding (ligand: [125I] RTI-55). The format is cell membranes, MDCK, Membrane. The note with it: Not Active = under 50% inhibition at 10 µM.
In another data set the target is T1, B2 bradykinin receptor (Homo sapiens, UniProt P30411). Note: in other assays of this panel Not Active means under 50% inhibition at 10 µM.
T1 sequence (P30411 whole entry): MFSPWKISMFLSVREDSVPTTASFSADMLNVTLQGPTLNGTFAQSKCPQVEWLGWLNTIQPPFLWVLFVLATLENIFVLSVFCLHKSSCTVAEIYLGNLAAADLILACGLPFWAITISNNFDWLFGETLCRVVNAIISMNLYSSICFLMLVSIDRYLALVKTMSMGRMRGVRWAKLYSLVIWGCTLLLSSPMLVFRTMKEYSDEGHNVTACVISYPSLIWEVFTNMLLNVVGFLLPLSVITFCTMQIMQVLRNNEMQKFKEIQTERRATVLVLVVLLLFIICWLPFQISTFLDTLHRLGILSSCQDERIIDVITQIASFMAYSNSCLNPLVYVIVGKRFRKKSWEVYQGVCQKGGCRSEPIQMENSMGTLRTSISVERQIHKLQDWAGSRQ
The format is cell membranes, Membrane. To be noted: chem-1.

A short description of data set [2]: DRUGMATRIX: Tumor Necrosis Factor (TNF), Non-Selective radioligand binding (ligand: [125I] TNF-alpha). To be noted: u-937; Not Active = under 50% inhibition at 10 µM. The format is cell membranes, Membrane.
In data set [3] the target is T2, Muscarinic acetylcholine receptor M2 (Homo sapiens, UniProt P08172). Note: in other assays of this panel Not Active means under 50% inhibition at 10 µM.
T2 sequence (P08172 whole entry): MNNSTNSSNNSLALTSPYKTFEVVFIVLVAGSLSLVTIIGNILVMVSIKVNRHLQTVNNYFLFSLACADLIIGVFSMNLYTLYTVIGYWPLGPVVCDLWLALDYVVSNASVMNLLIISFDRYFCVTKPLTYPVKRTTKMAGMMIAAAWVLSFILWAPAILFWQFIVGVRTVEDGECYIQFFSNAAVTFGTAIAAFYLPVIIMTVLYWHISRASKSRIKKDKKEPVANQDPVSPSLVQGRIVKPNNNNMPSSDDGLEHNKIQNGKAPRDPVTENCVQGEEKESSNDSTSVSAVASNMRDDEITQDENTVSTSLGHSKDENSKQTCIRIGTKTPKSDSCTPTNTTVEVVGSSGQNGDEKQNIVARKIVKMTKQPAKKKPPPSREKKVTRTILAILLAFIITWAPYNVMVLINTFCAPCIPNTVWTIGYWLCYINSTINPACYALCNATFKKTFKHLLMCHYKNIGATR
The format is cell membranes, CHO-K1, Membrane. To be noted: cho-k1.

In the next data set the target is T3, Caspase-1 (Homo sapiens, UniProt P29466).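 Note: Caspase-1 enzyme inhibition assay with a peptide substrate; in other assays of this panel Not Active means under 50% inhibition at 10 µM.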
T3 sequence (P29466 whole entry): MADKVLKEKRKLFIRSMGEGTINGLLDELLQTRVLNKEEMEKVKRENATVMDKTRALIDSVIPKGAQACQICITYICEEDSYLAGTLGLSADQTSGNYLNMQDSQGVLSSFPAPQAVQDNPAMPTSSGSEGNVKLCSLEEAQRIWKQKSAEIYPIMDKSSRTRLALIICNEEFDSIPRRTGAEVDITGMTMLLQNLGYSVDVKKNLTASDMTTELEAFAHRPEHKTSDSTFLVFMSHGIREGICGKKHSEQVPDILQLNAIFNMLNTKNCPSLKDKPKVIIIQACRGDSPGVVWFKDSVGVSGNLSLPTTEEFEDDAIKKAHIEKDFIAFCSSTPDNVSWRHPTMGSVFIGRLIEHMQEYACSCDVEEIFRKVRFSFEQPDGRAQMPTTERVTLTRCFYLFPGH
On the set-up: species or system Escherichia coli.

Another data set concerns the target T4, Interstitial collagenase (Homo sapiens, UniProt P03956).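 Note: MMP-1 enzyme inhibition assay using a peptide substrate; in other assays of this panel Not Active means under 50% inhibition at 10 µM.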
T4 sequence (P03956 whole entry): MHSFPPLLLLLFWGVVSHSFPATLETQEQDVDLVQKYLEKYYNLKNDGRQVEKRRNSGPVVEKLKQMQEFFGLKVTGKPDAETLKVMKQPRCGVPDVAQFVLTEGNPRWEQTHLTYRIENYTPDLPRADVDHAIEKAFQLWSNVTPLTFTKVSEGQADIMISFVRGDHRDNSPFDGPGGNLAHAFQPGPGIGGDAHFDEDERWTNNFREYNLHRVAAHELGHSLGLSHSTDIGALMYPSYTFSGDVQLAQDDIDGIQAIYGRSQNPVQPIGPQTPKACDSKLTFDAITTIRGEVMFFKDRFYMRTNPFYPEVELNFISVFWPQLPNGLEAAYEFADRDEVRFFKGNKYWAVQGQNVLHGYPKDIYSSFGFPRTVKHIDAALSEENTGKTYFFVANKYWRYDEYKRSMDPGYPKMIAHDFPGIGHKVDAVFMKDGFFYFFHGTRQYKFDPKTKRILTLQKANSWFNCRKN
Nature of the data set: biochemical. The format is tissue-based, Rheumatoid synovial fibroblasts.

Data set [4] concerns the target T5, 5-hydroxytryptamine receptor 1A (Rattus norvegicus, UniProt P19327). Note: in other assays of this panel Not Active means under 50% inhibition at 10 µM.
T5 sequence (P19327 whole entry): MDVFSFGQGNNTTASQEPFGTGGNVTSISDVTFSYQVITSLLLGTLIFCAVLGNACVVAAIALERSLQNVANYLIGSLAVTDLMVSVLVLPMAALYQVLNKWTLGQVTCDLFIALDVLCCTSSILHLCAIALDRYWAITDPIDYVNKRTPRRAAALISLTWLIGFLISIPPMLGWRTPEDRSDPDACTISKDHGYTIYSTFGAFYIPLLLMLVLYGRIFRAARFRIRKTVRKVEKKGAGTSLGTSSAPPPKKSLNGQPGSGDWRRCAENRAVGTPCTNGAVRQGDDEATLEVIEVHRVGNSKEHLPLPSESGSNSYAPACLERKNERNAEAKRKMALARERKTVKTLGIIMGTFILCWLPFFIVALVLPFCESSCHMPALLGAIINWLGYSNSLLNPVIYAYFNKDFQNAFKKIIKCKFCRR
The format is cell membranes, Membrane. The note with it: cho-k1.

The next data set has as its target T6, Adenosine receptor A1 (Homo sapiens, UniProt P30542).
T6 sequence (P30542 whole entry): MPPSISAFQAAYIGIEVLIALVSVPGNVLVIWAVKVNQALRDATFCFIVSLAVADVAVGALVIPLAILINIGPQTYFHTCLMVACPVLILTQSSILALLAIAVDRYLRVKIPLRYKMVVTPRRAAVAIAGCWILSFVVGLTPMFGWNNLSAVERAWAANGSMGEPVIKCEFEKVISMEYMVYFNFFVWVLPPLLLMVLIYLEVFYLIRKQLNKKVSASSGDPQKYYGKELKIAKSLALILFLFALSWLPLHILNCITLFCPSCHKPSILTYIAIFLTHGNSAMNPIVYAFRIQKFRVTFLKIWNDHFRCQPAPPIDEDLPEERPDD
The format is cell membranes, Membrane. To be noted: cho.

The target of a further data set is Cytochrome P450 2C19 (Homo sapiens, UniProt P33261). The note with it: bti-tn-5b1-4. Note: in other assays of this panel Not Active means under 50% inhibition at 10 µM.
Cytochrome P450 2C19, sequence (P33261 whole entry): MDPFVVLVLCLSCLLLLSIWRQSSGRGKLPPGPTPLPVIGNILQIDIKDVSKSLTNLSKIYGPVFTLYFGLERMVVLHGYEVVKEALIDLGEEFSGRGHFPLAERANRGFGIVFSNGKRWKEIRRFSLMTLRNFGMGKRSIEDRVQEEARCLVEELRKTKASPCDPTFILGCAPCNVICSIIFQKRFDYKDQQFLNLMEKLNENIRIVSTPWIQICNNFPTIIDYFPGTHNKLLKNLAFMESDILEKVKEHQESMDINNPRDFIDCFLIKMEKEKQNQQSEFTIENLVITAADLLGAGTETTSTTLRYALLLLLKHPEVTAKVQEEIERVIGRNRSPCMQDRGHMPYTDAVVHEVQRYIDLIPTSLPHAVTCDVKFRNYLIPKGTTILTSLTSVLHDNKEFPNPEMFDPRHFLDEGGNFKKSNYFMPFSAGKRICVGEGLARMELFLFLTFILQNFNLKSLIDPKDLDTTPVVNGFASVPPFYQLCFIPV
In a further data set the target is Cytochrome P450 3A4 (Homo sapiens, UniProt P08684). The note with it: bti-tn-5b1-4. Note: in other assays of this panel Not Active means under 50% inhibition at 10 µM.
Cytochrome P450 3A4, sequence (P08684 whole entry): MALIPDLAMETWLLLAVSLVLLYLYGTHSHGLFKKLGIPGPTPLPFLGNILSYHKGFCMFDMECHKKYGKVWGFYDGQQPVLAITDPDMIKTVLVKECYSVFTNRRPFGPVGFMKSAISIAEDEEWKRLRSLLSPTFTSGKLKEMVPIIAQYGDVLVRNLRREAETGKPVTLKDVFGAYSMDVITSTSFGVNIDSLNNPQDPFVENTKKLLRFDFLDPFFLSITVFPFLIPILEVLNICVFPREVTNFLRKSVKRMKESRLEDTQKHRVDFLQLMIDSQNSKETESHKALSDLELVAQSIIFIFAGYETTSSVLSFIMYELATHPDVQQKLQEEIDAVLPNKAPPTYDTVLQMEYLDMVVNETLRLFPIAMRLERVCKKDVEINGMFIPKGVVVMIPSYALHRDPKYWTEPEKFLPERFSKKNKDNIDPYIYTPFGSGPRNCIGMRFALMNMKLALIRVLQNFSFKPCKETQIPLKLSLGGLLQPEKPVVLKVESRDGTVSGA

Sodium-dependent noradrenaline transporter, sequence (P23975 whole entry): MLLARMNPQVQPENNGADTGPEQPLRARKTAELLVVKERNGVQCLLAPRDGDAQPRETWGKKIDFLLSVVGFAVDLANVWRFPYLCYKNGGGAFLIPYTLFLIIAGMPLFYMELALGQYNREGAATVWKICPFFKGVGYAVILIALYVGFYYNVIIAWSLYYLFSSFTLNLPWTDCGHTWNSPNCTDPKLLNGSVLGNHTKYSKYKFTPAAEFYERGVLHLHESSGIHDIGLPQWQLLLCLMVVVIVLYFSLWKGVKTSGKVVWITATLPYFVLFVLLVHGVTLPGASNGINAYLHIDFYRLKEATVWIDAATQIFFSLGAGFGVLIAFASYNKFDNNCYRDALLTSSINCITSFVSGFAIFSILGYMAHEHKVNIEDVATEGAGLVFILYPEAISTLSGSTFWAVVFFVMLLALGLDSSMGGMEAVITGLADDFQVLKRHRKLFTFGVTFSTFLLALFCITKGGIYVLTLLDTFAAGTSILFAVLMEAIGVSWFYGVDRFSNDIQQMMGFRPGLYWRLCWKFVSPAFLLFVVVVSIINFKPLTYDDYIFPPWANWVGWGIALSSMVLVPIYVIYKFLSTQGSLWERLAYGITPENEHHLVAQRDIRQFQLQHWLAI

For the compound `CC(=O)CC(c1ccccc1)c1c(O)c2ccccc2oc1=O` (configuration not stated) [WARFARIN], the IC50 result (in [1] (mdck); on B2 bradykinin receptor; in data set [2]; in data set [3]; against Caspase-1; on Interstitial collagenase) was “Not Active” throughout. The IC50 result (in [4]; on Adenosine receptor A1; at Cytochrome P450 2C19; at Cytochrome P450 3A4) was “Not Active” in each case. In addition, the Ki result (in data set [2]; on Cytochrome P450 2C19; at Cytochrome P450 3A4) was “Not Active” each time.
For orientation: pIC50 means the IC50 on a negative log10 scale, so that one unit is a factor of ten. One may read the pKi as the Ki on a negative log10 scale, so that one unit is a factor of ten. Consider `[Cl-].[Cl-].[Zn+2]` [ZINC CHLORIDE], for which the pIC50 in [1] (read-out: IC50) is 5.15. Further, in data set [1] (read-out: Ki), the pKi is 5.16. In addition, the IC50 result (at B2 bradykinin receptor; in data set [2]; in data set [3]; against Caspase-1; on Interstitial collagenase; in data set [4]) was “Not Active” in each case. Further, the IC50 result against Adenosine receptor A1, against Cytochrome P450 2C19 and against Cytochrome P450 3A4 was “Not Active” each time. In addition, the Ki entry (in [2]; at Cytochrome P450 2C19; on Cytochrome P450 3A4) was “Not Active” in each case.
